Reference: patent US20250092065A1, “2-(INDAZOL-5-YL)-6-(PIPERIDIN-4-YL)-1,7-NAPHTHYRIDINE DERIVATIVES AND RELATED COMPOUNDS AS MODULATORS FOR SPLICING NUCLEIC ACIDS AND FOR THE TREATMENT OF PROLIFERATIVE DISEASES” (REMIX THERAPEUTICS INC., priority 2022, published 2025)

What was measured:
Format in all cases: cell-based, human
Settings in all cases: HiBiT knock-in K562 cells, 24 hours, top dose 10 μM
MYB = experiment: HiBiT protein abundance assay, MYB (K562 HiBiT knock-in)
Outline: (§1)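 Steps: seed HiBiT knock-in K562 cells; add compound in 10-point 3-fold series from 10 μM final; incubate 24 h, 37 °C; add lytic HiBiT reagent, shake 5 min, wait 10 min; read luminescence. Normalize to parental K562 and DMSO controls, fit 4PL, take IC50.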

Target C = experiment: HiBiT protein abundance assay, Target C (K562 HiBiT knock-in)
Outline: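 K562 HiBiT knock-in cells (10000/well) were treated 24 h at 37° C with a 10-point 3-fold dilution series (top 10 μM final, ≤0.25% DMSO). HiBiT luminescence was read after lytic LgBiT detection. Percent response used unmodified K562 and DMSO-treated knock-in controls, and IC50 came from a four-parameter fit at 50% of untreated.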

HTT = experiment: HiBiT protein abundance assay, HTT (K562 HiBiT knock-in)
Outline: as §1

Compound	IC50 (MYB) [nM]	IC50 (Target C) [nM]	IC50 (HTT) [nM]
Cn1cc2cc(-c3ccc4nc(N5CC[C@@H](NC6CC(F)(F)C6)C5)ccc4n3)c(O)cc2n1 [Compound 385]	100 to 1000	100 to 1000	< 100
Cn1cc2cc(-c3ccc4nc(N5CCC(NCC6CC6)C5)ccc4n3)c(O)c(F)c2n1 (stereo not drawn) [Compound 387, 5-(6-{3-[(cyclopropylmethyl)amino]pyrrolidin-1-yl}-1,5-naphthyridin-2-yl)-7-fluoro-2-methylindazol-6-ol]	< 100	< 100	< 100
CC(C)NC1CCN(c2ccc3nc(-c4cc5cn(C)nc5c(F)c4O)ccc3n2)C1 (stereo not drawn) [Compound 388, 7-fluoro-5-{6-[3-(isopropylamino)pyrrolidin-1-yl]-1,5-naphthyridin-2-yl}-2-methylindazol-6-ol]	< 100	< 100	< 100
Cc1nc2cc(O)c(-c3ccc4nc(N5CCC(NCC6CC6)C5)ccc4n3)cc2o1 (stereo not drawn) [Compound 389, 6-(6-{3-[(cyclopropylmethyl)amino]pyrrolidin-1-yl}-1,5-naphthyridin-2-yl)-2-methyl-1,3-benzoxazol-5-ol]	< 100	< 100	< 100
Cc1nc2c(C)c(O)c(-c3ccc4nc(N5CCC(NCC6CC6)C5)ccc4n3)cc2o1 (stereo not drawn) [Compound 390, 6-(6-{3-[(cyclopropylmethyl)amino]pyrrolidin-1-yl}-1,5-naphthyridin-2-yl)-2,4-dimethyl-1,3-benzoxazol-5-ol]	< 100	< 100	< 100
CNC1CCN(c2ccc3nc(-c4cc(F)c5nc(C)cn5c4)ncc3n2)C1 (stereo not drawn) [Compound 393, 1-(2-{8-fluoro-2-methylimidazo[1,2-a]pyridin-6-yl}pyrido[3,2-d]pyrimidin-6-yl)-N-methylpyrrolidin-3-amine]	< 100	100 to 1000	100 to 1000
Cc1c(O)c(-c2ncc3nc(C4CCNC4)ccc3n2)cc2cn(C)nc12 (stereo not drawn) [Compound 397, 2,7-dimethyl-5-[6-(pyrrolidin-3-yl)pyrido[3,2-d]pyrimidin-2-yl]indazol-6-ol; trifluoroacetic acid]	100 to 1000	1000 to 10000	1000 to 10000
Cc1c(O)c(-c2ncc3nc([C@H]4CCNC4)ccc3n2)cc2cn(C)nc12 [Compound 399]	1000 to 10000	> 10000	> 10000
Cn1cc2cc(-c3ncc4nc(C5CCNCC5)ccc4n3)c(O)c(C#N)c2n1 [Compound 403, 6-hydroxy-2-methyl-5-[6-(piperidin-4-yl)pyrido[3,2-d]pyrimidin-2-yl]indazole-7-carbonitrile; trifluoroacetic acid]	< 100	100 to 1000	100 to 1000
Cn1cc2cc(-c3ccc4nc(N5CCC(NC(C)(C)C)C5)ncc4n3)c(O)cc2n1 (stereo not drawn) [Compound 404, 5-{2-[3-(tert-butylamino)pyrrolidin-1-yl]pyrido[3,2-d]pyrimidin-6-yl}-2-methylindazol-6-ol]	100 to 1000	< 100	< 100
COc1cc(-c2ccc3nc(N4CCC(NC(C)(C)C)C4)ncc3n2)cnn1 (stereo not drawn) [Compound 405, N-tert-butyl-1-[6-(6-methoxypyridazin-4-yl)pyrido[3,2-d]pyrimidin-2-yl]pyrrolidin-3-amine]	1000 to 10000	1000 to 10000	1000 to 10000
CN[C@H]1CCN(c2ccc3nc(-c4cc(C#N)c5nc(C)cn5c4)ncc3n2)C1 [Compound 406, 2-methyl-6-{6-[(3S)-3-(methylamino)pyrrolidin-1-yl]pyrido[3,2-d]pyrimidin-2-yl}imidazo[1,2-a]pyridine-8-carbonitrile]	100 to 1000	1000 to 10000	1000 to 10000
CN[C@@H]1CCN(c2ccc3nc(-c4cc(C#N)c5nc(C)cn5c4)ncc3n2)C1 [Compound 407, 2-methyl-6-{6-[(3R)-3-(methylamino)pyrrolidin-1-yl]pyrido[3,2-d]pyrimidin-2-yl}imidazo[1,2-a]pyridine-8-carbonitrile]	100 to 1000	1000 to 10000	100 to 1000
